Source: US12473294B2, “Selective modulators of mutant LRRK2 proteolysis and associated methods of use” (Arvinas Operations, Inc., priority 2020, dated 2025)

Key:
[1] = target: T1, wildtype LRRK2 (Homo sapiens, UniProt Q5S007); assay: LRRK2 degradation HiBit assay, wildtype LRRK2 tagged with a HiBit tag in HEK293 cells; assay type: cell-based; conditions: 24 hours compound incubation; for DC50: read-out: *WT DC50; for Dmax: read-out: ** WT Dmax (%)
T1 construct: endogenous in cells; host or cells: HEK293 with HiBit knocked in at the 3' end of the endogenous LRRK2 gene, stably expressing firefly luciferase
Protocol: (§1) The assay measures the degradation of wildtype and G2019S LRRK2 tagged with a HiBit tag on the C-terminus of the protein that was expressed from a mammalian expression vector, driven by the ubiquitin promoter in HEK293 cells. Each compound dose-response was repeated on two separate days, on three separate plates each day.
(§2) Plasmid Preparation. Transfection mixes were assembled as follows and incubated for 30 minutes at room temperature. In a 15 mL tube, 5.25 mL Opti-MEM (no additions) was mixed with 17 μL Firefly Luciferase plasmid at 1 μg/μL and 158 μL WT plasmid DNA at 1 μg/μL (175 μg total DNA) were mixed by flicking. In a new 15 mL tube, 5.25 mL OptiMEM was mixed with 17 μL Firefly Luciferase plasmid at 1 μg/μL and 158 μL G2019S plasmid DNA at 1 μg/μL (175 μg total DNA) were mixed by flicking. X-tremeGene HP was mixed thoroughly using a vortex. Next, 175 μL was added to each tube and flicked to mix. Both tubes were left to incubate for 30 minutes at room temperature.
While the transfection mixes were incubating, HEK293 cells (acquired from ATCC; ATCC CRL-1573) were harvested with trypsin. Once cells are detached, the cells were resuspended in 12 mL OptiMEM+5% FBS and transferred to a 50 mL tube. The cells were mixed well and counted. Using OptiMEM+5% FBS, the cells were diluted in two 250 mL conical tubes at 0.71×10^6 cells/mL in 70 mL. One tube was labeled “WT” and the other “G2019S”. The WT and G2019S transfection mixes were added dropwise to the corresponding 250 mL tubes. The tubes were mixed first by pipetting then by swirling. The tubes were incubated at room temperature for at least 5 minutes.
(§3) Each tube was swirled before dispensing and after every three plates. Seventy microliters of cells were dispensed with WT or G2019S DNA to seven plates each. Three plates of each were tested with compound plate one (preparation described below) and three plates of each were tested with compound plate two (preparation described below). The first plate from each set served as a “prime” plate and was not used to test compounds. Each plate was incubated in the hood for 10 minutes before placing in the 37° C. incubator for 24 hours.
(§4) Preparation of Compound and Assay Plates. Two compound plates were made using 96 well polypropylene plates. Compounds were made up at 10 mM and were diluted to 1 mM in 30 μL. Each dose response curve included a well of DMSO, as a negative control and for normalization, and a well of 0.5 μM of Exemplary Compound 4 as a positive control. In addition to seven test compounds, each plate also included a dose response of Exemplary Compound 4. The compound plates were spun down along at 1200 rpm for 2 minutes.
(§5) The two compound plates were then mixed and 2 μL was diluted in intermediate plates having 248 μL of Opti-Mem in each well. Next, 10 μL diluted compounds from the intermediate plates were added to each test plate (three WT and three G2019S plates per compound plate for a total of 12 assay plates). The plates were incubated for 24 hours at 37° C.
(§6) All assay plates and all Nano-Glo Dual-Luciferase Reporter Assay System components (except for the DLR substrate) were equilibrated to room temperature. Next, the luciferase buffer was mixed with the lyophilized amber bottle until fully dissolved, and 75 μL of the luciferase mixture was added to each well of each assay plate. The assay plates were incubated for 10 minutes at room temperature with shaking for at least 5 minutes, and then read on a plate reader.
(§7) Developing Plates and Analyzing Data. One milliliter of DLR substrate and 1 mL LgBiT Protein were added to the Stop and Glo buffer, and 75 μL of the mixture was added to each well of each plate. Optically clear seals were added to each plate and each plate was incubated for 20 minutes with shaking for at least 10 minutes, and then read on a plate reader. […]

[2] = target: T2, G2019S LRRK2 (Homo sapiens, UniProt Q5S007, G2019S); assay: LRRK2 degradation HiBit assay, G2019S LRRK2 tagged with a HiBit tag expressed in HEK293 cells; assay type: cell-based; conditions: 24 hours compound incubation; for Dmax: HEK293, HEK293 cells
T2 construct: expressed in transfected cells; host or cells: HEK293 (ATCC CRL-1573)
Protocol: as §1, with “three” for “two”
as §2
While the transfection mixes were incubating, HEK293 cells acquired from ATCC (ATCC CRL-1573) were harvested with trypsin. Once cells are detached, the cells were resuspended in 12 mL OptiMEM+5% FBS and transferred to a 50 mL tube. The cells were mixed well and counted. Using OptiMEM+5% FBS, the cells were diluted in two 250 mL conical tubes at 0.71×10^6 cells/mL in 70 mL. One tube was labeled “WT” and the other “G2019S”. The WT and G2019S transfection mixes were added dropwise to the corresponding 250 mL tubes. The tubes were mixed first by pipetting then by swirling. The tubes were incubated at room temperature for at least 5 minutes.
as §3, §4, §5, §6, §7

T1 sequence (Q5S007 whole entry): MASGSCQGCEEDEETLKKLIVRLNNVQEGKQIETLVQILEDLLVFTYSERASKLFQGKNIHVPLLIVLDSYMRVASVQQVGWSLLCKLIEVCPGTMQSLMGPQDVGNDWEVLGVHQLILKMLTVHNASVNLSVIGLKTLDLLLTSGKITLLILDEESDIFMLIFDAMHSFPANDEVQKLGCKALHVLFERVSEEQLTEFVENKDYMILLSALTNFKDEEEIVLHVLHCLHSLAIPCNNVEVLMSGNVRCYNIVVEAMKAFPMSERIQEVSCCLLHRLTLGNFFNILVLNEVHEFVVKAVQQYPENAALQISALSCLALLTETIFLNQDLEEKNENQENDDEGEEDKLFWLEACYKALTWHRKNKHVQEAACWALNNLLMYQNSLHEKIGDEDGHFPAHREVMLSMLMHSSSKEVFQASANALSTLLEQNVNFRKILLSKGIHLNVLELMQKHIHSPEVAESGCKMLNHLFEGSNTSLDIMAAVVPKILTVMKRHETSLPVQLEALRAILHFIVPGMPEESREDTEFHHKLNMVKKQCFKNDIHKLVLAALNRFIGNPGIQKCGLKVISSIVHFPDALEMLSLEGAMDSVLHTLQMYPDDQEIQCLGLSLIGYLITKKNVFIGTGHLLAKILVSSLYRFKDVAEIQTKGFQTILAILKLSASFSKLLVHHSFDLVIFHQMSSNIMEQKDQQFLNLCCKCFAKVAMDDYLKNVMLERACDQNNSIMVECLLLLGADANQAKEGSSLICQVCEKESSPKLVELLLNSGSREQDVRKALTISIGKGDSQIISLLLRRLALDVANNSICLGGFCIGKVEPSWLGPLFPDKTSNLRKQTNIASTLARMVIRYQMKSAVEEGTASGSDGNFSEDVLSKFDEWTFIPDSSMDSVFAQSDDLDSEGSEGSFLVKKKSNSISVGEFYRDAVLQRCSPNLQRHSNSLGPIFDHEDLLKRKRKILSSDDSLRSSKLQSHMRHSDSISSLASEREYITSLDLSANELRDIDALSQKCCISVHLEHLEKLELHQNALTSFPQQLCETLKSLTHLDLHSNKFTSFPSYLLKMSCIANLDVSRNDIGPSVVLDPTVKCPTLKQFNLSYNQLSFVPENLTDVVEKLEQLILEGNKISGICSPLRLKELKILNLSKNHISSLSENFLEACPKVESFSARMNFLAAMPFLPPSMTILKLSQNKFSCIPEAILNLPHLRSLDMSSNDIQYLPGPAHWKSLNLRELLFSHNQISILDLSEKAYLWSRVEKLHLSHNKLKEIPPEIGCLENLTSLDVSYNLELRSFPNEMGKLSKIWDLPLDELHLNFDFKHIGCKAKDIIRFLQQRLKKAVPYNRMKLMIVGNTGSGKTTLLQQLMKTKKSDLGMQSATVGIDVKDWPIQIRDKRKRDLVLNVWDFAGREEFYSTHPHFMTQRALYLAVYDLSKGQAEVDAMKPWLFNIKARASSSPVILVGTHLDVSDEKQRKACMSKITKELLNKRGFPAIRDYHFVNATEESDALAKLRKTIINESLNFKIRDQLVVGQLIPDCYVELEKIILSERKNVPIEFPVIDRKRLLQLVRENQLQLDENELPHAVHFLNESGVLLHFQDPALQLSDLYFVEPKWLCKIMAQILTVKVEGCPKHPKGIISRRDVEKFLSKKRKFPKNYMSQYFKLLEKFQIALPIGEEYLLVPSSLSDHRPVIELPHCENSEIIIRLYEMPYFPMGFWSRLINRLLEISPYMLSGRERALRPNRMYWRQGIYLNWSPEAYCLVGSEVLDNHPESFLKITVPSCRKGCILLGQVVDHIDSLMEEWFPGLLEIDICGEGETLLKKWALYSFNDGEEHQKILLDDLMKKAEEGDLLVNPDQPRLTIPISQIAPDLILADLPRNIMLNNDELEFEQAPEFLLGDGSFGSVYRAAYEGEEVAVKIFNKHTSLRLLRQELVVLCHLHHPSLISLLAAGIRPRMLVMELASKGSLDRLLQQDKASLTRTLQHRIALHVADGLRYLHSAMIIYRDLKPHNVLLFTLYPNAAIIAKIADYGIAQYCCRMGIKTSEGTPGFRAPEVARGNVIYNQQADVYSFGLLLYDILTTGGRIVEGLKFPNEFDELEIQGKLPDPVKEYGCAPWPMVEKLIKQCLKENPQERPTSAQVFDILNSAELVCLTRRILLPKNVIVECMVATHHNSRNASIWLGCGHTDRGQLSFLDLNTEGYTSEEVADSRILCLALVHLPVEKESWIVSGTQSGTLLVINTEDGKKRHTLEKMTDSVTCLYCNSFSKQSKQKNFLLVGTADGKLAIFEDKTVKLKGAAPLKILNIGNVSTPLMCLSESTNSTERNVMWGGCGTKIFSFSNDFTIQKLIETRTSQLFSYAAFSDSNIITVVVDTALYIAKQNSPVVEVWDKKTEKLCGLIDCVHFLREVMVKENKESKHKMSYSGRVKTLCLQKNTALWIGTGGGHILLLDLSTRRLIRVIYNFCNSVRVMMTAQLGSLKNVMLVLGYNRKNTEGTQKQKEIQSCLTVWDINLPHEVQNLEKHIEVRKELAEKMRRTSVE
T2 sequence (Q5S007 whole entry G2019S): as the sequence (Q5S007 whole entry) above, with G2019S counted along it

Row | Compound | DC50 [1] [µM] | Dmax [2] [%] | DC50 ([2]; HEK293 cells) [µM] | Dmax [1] [%] | **G2019S Dmax (%) ([2]; HEK293 cells)
1 | CC1=C(C(=O)Nc2ccc3[nH]nc(-c4ccnc(N5CCN(CC6CCN(CC7CCN(c8ccc9c(c8)C(=O)N(C8CCC(=O)NC8=O)C9=O)CC7)CC6)CC5)c4)c3c2)[C@H](C)n2nnnc2N1C (stereo partly drawn) [compound 12, (7S)-N-(3-(2-(4-((1-((1-(2-(2,6-dioxopiperidin-3-yl)-1,3-dioxoisoindolin-5-yl)piperidin-4-yl)methyl)piperidin-4-yl)methyl)piperazin-1-yl)pyridin-4-yl)-1H-indazol-5-yl)-4,5,7-trimethyl-4,7-dihydrotetrazolo[1,5-a]pyrimidine-6-carboxamide] | ≥ 0.1 | < 50 | ≥ 0.1 |  | 
2 | CC1=C(C(=O)Nc2ccc3[nH]nc(-c4ccnc(N5CCN(CCOCCN6CC7(C6)CN(c6ccc8c(c6)C(=O)N(C6CCC(=O)NC6=O)C8=O)C7)CC5)c4)c3c2)[C@@H](C)n2nnnc2N1C (stereo partly drawn) [compound 20, (7R)-N-[3-(2-{4-[2-(2-{6-[2-(2,6-dioxopiperidin-3-yl)-1,3-dioxo-2,3-dihydro-1H-isoindol-5-yl]-2,6-diazaspiro[3.3]heptan-2-yl}ethoxy)ethyl]piperazin-1-yl}pyridin-4-yl)-1H-indazol-5-yl]-4,5,7-trimethyl-4H,7H-[1,2,3,4]tetrazolo[1,5-a]pyrimidine-6-carboxamide] | ≥ 0.1 |  | ≥ 0.1 |  | 
3 | CC1=C(C(=O)Nc2ccc3[nH]nc(-c4ccnc(N5CCN(CCN6CCC(CN7CCN(c8ccc9c(c8)C(=O)N(C8CCC(=O)NC8=O)C9=O)CC7)CC6)CC5)c4)c3c2)C(C)(C)n2nnnc2N1C (stereo not shown) [compound 33, N-{3-[2-(4-{2-[4-({4-[2-(2,6-dioxopiperidin-3-yl)-1,3-dioxo-2,3-dihydro-1H-isoindol-5-yl]piperazin-1-yl}methyl)piperidin-1-yl]ethyl}piperazin-1-yl)pyridin-4-yl]-1H-indazol-5-yl}-4,5,7,7-tetramethyl-4H,7H-[1,2,3,4]tetrazolo[1,5-a]pyrimidine-6-carboxamide] | ≥ 0.1 | < 50 | ≥ 0.1 | < 50 | 
4 | CC1=C(C(=O)Nc2ccc3[nH]nc(-c4ccnc(N5C[C@@H](C)N(CCOCCN6CCN(c7ccc8c(c7)C(=O)N(C7CCC(=O)NC7=O)C8=O)CC6)[C@@H](C)C5)c4)c3c2)Cn2nnnc2N1C (stereo partly drawn) [compound 3, N-(3-(2-((3R,5S)-4-(2-(2-(4-(2-(2,6-dioxopiperidin-3-yl)-1,3-dioxoisoindolin-5-yl)piperazin-1-yl)ethoxy)ethyl)-3,5-dimethylpiperazin-1-yl)pyridin-4-yl)-1H-indazol-5-yl)-4,5-dimethyl-4,7-dihydrotetrazolo[1,5-a]pyrimidine-6-carboxamide] | ≥ 0.1 |  | ≥ 0.1 |  | 
5 | CC1=C(C(=O)Nc2ccc3[nH]nc(-c4ccnc(N5CCN(CCN6CCC(CN7CCN(c8ccc9c(c8)C(=O)N(C8CCC(=O)NC8=O)C9=O)CC7)CC6)[C@@H](C)C5)c4)c3c2)[C@H](C)n2nnnc2N1C (stereo partly drawn) [compound 31, (7S)-N-(3-{2-[(3S)-4-{2-[4-({4-[2-(2,6-dioxopiperidin-3-yl)-1,3-dioxo-2,3-dihydro-1H-isoindol-5-yl]piperazin-1-yl}methyl)piperidin-1-yl]ethyl}-3-methylpiperazin-1-yl]pyridin-4-yl}-1H-indazol-5-yl)-4,5,7-trimethyl-4H,7H-[1,2,3,4]tetrazolo[1,5-a]pyrimidine-6-carboxamide] | ≥ 0.1 | < 50 | ≥ 0.1 |  | 
6 | CC1=C(C(=O)Nc2ccc3[nH]nc(-c4ccnc(N5CCN(CCCN6CCN(c7ccc8c(c7)C(=O)N(C7CCC(=O)NC7=O)C8=O)CC6)CC5)c4)c3c2)[C@@H](C)n2nnnc2N1C (stereo partly drawn) [compound 15, (7R)-N-(3-(2-(4-(3-(4-(2-(2,6-dioxopiperidin-3-yl)-1,3-dioxoisoindolin-5-yl)piperazin-1-yl)propyl)piperazin-1-yl)pyridin-4-yl)-1H-indazol-5-yl)-4,5,7-trimethyl-4,7-dihydrotetrazolo[1,5-a]pyrimidine-6-carboxamide] | ≥ 0.1 | 50 to 70 | 0.01 to 0.05 | 50 to 70 | 

More lines, now with the values ahead:

Row | DC50 [1] [µM] | Dmax [2] [%] | DC50 ([2]; HEK293 cells) [µM] | Dmax [1] [%] | **G2019S Dmax (%) ([2]; HEK293 cells) | Compound
7 | 0.05 to 0.1 | < 50 | 0.01 to 0.05 | < 50 |  | CC1=C(C(=O)Nc2ccc3[nH]nc(-c4ccnc(N5CCN(CC6CCN(CC7CCN(c8ccc9c(c8)C(=O)N(C8CCC(=O)NC8=O)C9=O)CC7)CC6)CC5)c4)c3c2)[C@@H](C)n2nnnc2N1C (stereo partly drawn) [compound 11, (7R)-N-(3-(2-(4-((1-((1-(2-(2,6-dioxopiperidin-3-yl)-1,3-dioxoisoindolin-5-yl)piperidin-4-yl)methyl)piperidin-4-yl)methyl)piperazin-1-yl)pyridin-4-yl)-1H-indazol-5-yl)-4,5,7-trimethyl-4,7-dihydrotetrazolo[1,5-a]pyrimidine-6-carboxamide]
8 | 0.05 to 0.1 |  | 0.01 to 0.05 | ≥ 70 | A (A ≥ 70) | CC1=C(C(=O)Nc2ccc3[nH]nc(-c4ccnc(N5CCN(CCN6CCN(CC7CCN(c8ccc9c(c8)C(=O)N(C8CCC(=O)NC8=O)C9=O)CC7)CC6)CC5)c4)c3c2)[C@@H](C)n2nnnc2N1C (stereo partly drawn) [compound 25, (7R)-N-{3-[2-(4-{2-[4-({1-[2-(2,6-dioxopiperidin-3-yl)-1,3-dioxo-2,3-dihydro-1H-isoindol-5-yl]piperidin-4-yl}methyl)piperazin-1-yl]ethyl}piperazin-1-yl)pyridin-4-yl]-1H-indazol-5-yl}-4,5,7-trimethyl-4H,7H-[1,2,3,4]tetrazolo[1,5-a]pyrimidine-6-carboxamide]
9 | 0.01 to 0.05 | 50 to 70 | < 0.01 | 50 to 70 |  | CC1=C(C(=O)Nc2ccc3[nH]nc(-c4ccnc(N5C[C@@H](C)N(CC6CCN(CC7CCN(c8ccc9c(c8)C(=O)N(C8CCC(=O)NC8=O)C9=O)CC7)CC6)[C@@H](C)C5)c4)c3c2)C(C)n2nnnc2N1C (stereo partly drawn) [compound 2, N-(3-(2-((3S,5R)-4-((1-((1-(2-(2,6-dioxopiperidin-3-yl)-1,3-dioxoisoindolin-5-yl)piperidin-4-yl)methyl)piperidin-4-yl)methyl)-3,5-dimethylpiperazin-1-yl)pyridin-4-yl)-1H-indazol-5-yl)-4,5,7-trimethyl-4,7-dihydrotetrazolo[1,5-a]pyrimidine-6-carboxamide]
10 | 0.01 to 0.05 | 50 to 70 | < 0.01 | 50 to 70 |  | CC1=C(C(=O)Nc2ccc3[nH]nc(-c4ccnc(N5CCN(CC6CCN(CC7CCN(c8ccc9c(c8)C(=O)N(C8CCC(=O)NC8=O)C9=O)CC7)CC6)[C@@H](C)C5)c4)c3c2)[C@@H](C)n2nnnc2N1C (single isomer, unassigned) [compound 8]
